According to publication PMC3740496, “Synthesis and biological activities of the respiratory chain inhibitor aurachin D and new ring versus chain analogues” (Beilstein Journal of Organic Chemistry, 2013):
Values after ≈ are worked out from the molar mass of the structure shown.

Columns and labels:
bacterial cytochrome bd = test system: bacterial cytochrome bd; parameters: method as in PMID 7827023; settings: cited from earlier work
[1] = test system: Vero cells (nontumor cells); experiment: Cytotoxicity on Vero cells (MTT); assay type: cell-based; settings: 48 h incubation
Method: (§1) was further incubated for 1.5 h. The medium was then discarded and 100 µL 2-propanol/10 N HCl (250:1) was added in order to dissolve formazan granules. The absorbance at 570 nm was measured using a microplate reader (EL808, Bio-Tek Instruments Inc.) and cell viability was expressed as a percentage relative to the respective solvent control. VERO cells: VERO cells were seeded into 96-well microplates at 10^5 cells per mL in RPMI supplemented with 10% foetal calf serum.
After 24 h, the cells were washed and two microliters of two-fold serial dilutions of each compound (10 mg/mL) was added to 100 μL of medium. Cells were then incubated for 48 h at 37 ° C under a 5% CO2 atmosphere. At the end of incubation, 20 µL of MTT solution (5 mg/mL) was added to each well and further incubated for 4 h at 37 °C to allow the formation of formazan. The crystals of formazan were then dissolved with 100 µL of a freshly prepared solution of sodium dodecyl sulfate (SDS) 10% (15 mL) and HCl 1 N (150 µL). The optical density of each well was measured at 595 nm using a multiwell plate reader. The 50% inhibition concentration was then determined by curve fitting.
MMP assay: Human U-2 OS osteosarcoma cells (HTB-96) were obtained from the American Type Culture Collection (ATCC) and were cultured under the conditions recommended by the depositor. Cells from actively growing cultures were harvested and seeded at 8 × 10^3 cells per well in 96-well imaging plates (BD Falcon). After 1 d cells reached approximately 60% confluency and were treated with aurachin analogues at the assigned concentrations for 16 h. In addition, cells were stimulated with 1 µM FCCP [carbonyl cyanide 4-(trifluoromethoxy)phenylhydrazone] as a positive control 1 h prior to the measurement. For labeling, cells were washed twice with assay buffer ([…], 5.4 mM KCl, 2 mM MgCl2, 10 mM glucose, 2 mM CaCl2, 10 mM HEPES; pH 7.35) and 100 µL of a staining solution (50 nM TMRM,

[2] = Cytotoxicity, growth inhibition (MTT); assay type: cell-based, human; settings: human, cell line not named at the place (Table 2: HCT-116 and K562); read-out: cytotoxic activity (IC50) on mammalian cell lines
Method: The cytotoxic activity of aurachin D (4) and analogues 9–11 and 17–19 was evaluated in growth inhibition experiments on mammalian cell lines (Table 2). After 5 days treatment, half inhibitory concentrations (IC50) were determined for human HCT-116 colon carcinoma and human K562 myelogenous leukemia cells. […]
as §1, with “VERO cells: VERO cells were seeded into 96-well microplates at 10^5 cells per mL in RPMI supplemented with 10% foetal calf serum.” left out

SMILES | inhibition of the cytochrome bd complex (bacterial cytochrome bd) | IC50 [1] [µg/mL] | melting point | IC50 at 5 days [2] [µg/mL]
CC(C)=CCC/C(C)=C/CC/C(C)=C/Cc1c(C)[nH]c2ccccc2c1=O [compound 4, aurachin D] | selectively inhibit | 13.8 (≈ 38 µM) | – | –
CC(C)=CCC/C(C)=C/Cc1c(C)[nH]c2ccccc2c1=O [compound 9] | – | – | 187 to 189 °C | –
COc1ccc2[nH]c(C)c(CC=C(C)CCC=C(C)CCC=C(C)C)c(=O)c2c1 [compound 18] | – | – | – | ~1 (≈ 2.54 µM)
CC(C)=CCCC(C)=CCCC(C)=CCc1c(C)[nH]c2cc3c(cc2c1=O)OCO3 [compound 19] | – | 4.4 (≈ 10.8 µM) | 298 to 300 °C (dec.) | –
